Values quoted from earlier work as cited in US10918602B2, “Compositions and methods for preparing polymeric films loaded with uniformly distributed drug particles” (New Jersey Institute of Technology, priority 2017, dated 2021).

Settings: literature examples

Q: For CN1C(=O)CN=C(c2ccccc2)c2cc(Cl)ccc21 [diazepam], which Diffusional exponent n is on record?
A: 0.82

Q: With COc1ccc2c(c1)c(CC(=O)O)c(C)n2C(=O)c1ccc(Cl)cc1 [indomethacin] as the molecule, how does the Diffusional exponent n read?
A: 0.9
